In data set [1] the test system is acute GVHD in BALB/c recipient mice. In words: acute GVHD model, C57BL/6 (H-2Kb) into BALB/c (H-2Kd) MHC mismatch bone marrow transplantation. The format is in vivo, mouse. Conditions: for survival: allogeneic recipients, 25 mg/kg i.p., p<0.001. The protocol: FIGS. 1A-1C. Compound No. 36 treatment of acute GVHD model. BALB/c recipient mice on day 0 received 5×10^6 of bone marrow cells and 1×10^6 of purified splenic T cells from allogeneic C57BL/6 donor or syngeneic BALB/c donor following lethal irradiation with 800 rads on day −1. Recipients received intraperitoneal injections of 25 mg/kg of Compound No. 36 or vector starting on day −1, then three times weekly, from day −1 to day 21. Mice were monitored […]. […] Data in *, P<0.05; **, P<0.01. Syn—syngenic; Allo—allogeneic.
To determine whether Compound No. 36 affects established parameters of acute GVHD, a well-established C57BL/6 (H-2Kb) into a BALB/c (H-2Kd) major histocompatibility complex (MHC) mismatch model was used. On day 0, BALB/c recipient mice received 5×10^6 of bone marrow cells and 1×10^6 of purified splenic T cells from allogeneic C57BL/6 donor or syngeneic BALB/c donor following lethal irradiation with 800 centiGray (units of radiation) on day −1. Recipients received intraperitoneal injections of 25 mg/kg every other day of Compound No. 36 or vector from day −1 to day 21. Mice were monitored daily for survival and weekly for GVHD score.

Data set [2] has as its system A20 mouse BALB/c lymphoma cell line in BALB/c recipient mice. In words: graft-versus tumor (GVT): acute GVHD model challenged with A20 tumor cells. The format is in vivo. From the text:
FIGS. 2A-2C. Compound No. 36 treatment of acute GVHD model challenged with A20 tumor cells. Using the same method as described in FIGS. 1A-1C, BALB/c recipient mice underwent major histocompatibility complex (MHC) major mismatch allogeneic bone marrow transplantation (BMT) with C57BL/6 donor or with BALB/c donor as syngeneic control. BALB/c recipient mice on day 0 received 5×10^6 of bone marrow cells and 1×10^6 of purified splenic T cells with or without 0.5×10^6 A20 cells inoculum. As indicated here, recipients received intraperitoneal injections of 25 mg/kg of Compound No. 36 or vector starting on day −1, then three time weekly, from day −1 to day 21. Mice were monitored weekly for survival and GVHD score. FIG. 2A indicates body weight changes of animals measured weekly.
Data in *, P<0.05; **, P<0.01. Syn—syngenic; Allo—allogeneic.
As GVHD is tightly linked to the graft-versus tumor (GVT) response, testing was undertaken to determine whether Compound No. 36 treatment reduces the effect of GVT in the same mouse model as for GVHD (Example 1). To that end, a mouse BALB/c lymphoma cell line, A20 (0.5×10^6), thus syngeneic to the recipients, was incorporated to the bone marrow transplantation (BMT) cell inoculum on day 0. Recipients received the same doses of Compound No. 36 or vector from day −1 to day 21 as the above model. Syngeneic recipients of BALB/c to BALB/c were also setup with or without A20 cell inoculum and injected the same doses of Compound No. 36 or vector. Syngeneic recipients challenged with A20 cells got systemic tumor infiltration (lower-limb paralysis, hepatosplenomegaly) and 100% of recipients died within 3 weeks after BMT without Compound No. 36 treatment (FIG. 2A and FIG. 2B).

Data set [3] relates to small intestinal organoids. In words: small intestinal organoids culture in vitro (GFP-Lgr5 transgenic mouse crypts). The format is cell-based. The protocol:
FIGS. 3A-3D display the effect of Compound No. 36 on intestinal organoids culture in vitro. Intestinal organoids were established from culture of small intestinal crypts in GFP-Lgr5 transgene B6 mice. 3-5 passages of organoids were used to test the effect of Compound No. 36 in vitro. After dissociation of organoids, 100 crypts per well mixed with Matrigel-culture medium were plated in 24-well plate. After the Matrigel polymerized, 500 μL of culture medium with different concentrations of Compound No. 36 or vector were added to each well. The growth of the organoids was checked daily. Three days after coculture, organoid numbers and budding numbers were counted under the microscope and were photographed (FIG. 3A). Then, organoids were mechanically disrupted and dissociated into single cells with TrypLE Express. Cells were stained with anti-CD326, annexin V, and 7-AAD to analyze GFP-Lgr5^hi cells apoptosis by flow cytometry (FIGS. 3B-3D).
To further determine whether Compound No. 36 has any direct GVHD organ (e.g., GI tract) toxicity or conversely, a regenerative effects, in the context of BMT, various concentrations of Compound No. 36 was cocultured with established small intestinal organoids, in which the intestine crypts were from the GFP-Leucine-rich repeat-containing G protein-coupled receptor 5 (Lgr5) transgenic mouse strain. Intestinal organoids were established from culture of small intestinal crypts in GFP-Lgr5 transgene B6 mice. 3-5 passages of organoids were used to test the effect of Compound No. 36 in vitro. After dissociation of organoids, 100 crypts per well mixed with Matrigel-culture medium were plated in 24-well plate. After the Matrigel polymerized, 500 μL of culture medium with different concentrations of Compound No. 36 or vector were added to each well. Orgonoid growth was assessed daily. Three days after coculture, organoid numbers and budding numbers were counted under the microscope and were photographed (FIG. 3A). […] Organoids were then mechanically disrupted and dissociated into single cells with TrypLE Express. […]

This is an account of results in patent publication US20230133504A1, “METHOD OF TREATING GRAFT-VERSUS-HOST DISEASE” (REGENTS OF THE UNIVERSITY OF MICHIGAN, priority 2021, published 2023).

`NC(=O)CC[C@H](NC(=O)[C@@H]1CC[C@@H]2CCN(C(=O)CCCCCC#Cc3cccc4c3CN(C3CCC(=O)NC3=O)C4=O)C[C@H](NC(=O)c3cc4cc(C(F)(F)P(=O)(O)O)ccc4[nH]3)C(=O)N21)C(=O)NC(c1ccccc1)c1ccccc1` (stereo partly drawn) [Compound No. 36, ((2-(((5S,8S,10aR)-8-(((S)-5-amino-1-(benzhydrylamino)-1,5-dioxopentan-2-yl)carbamoyl)-3-(8-(2-(2,6-dioxopiperidin-3-yl)-1-oxoisoindolin-4-yl)oct-7-ynoyl)-6-oxodecahydropyrrolo[1,2-a][1,5]diazocin-5-yl)carbamoyl)-1H-indol-5-yl)difluoromethyl)phosphonic acid]: in data set [1] (allogeneic C57BL/6 to BALB/c, 25 mg/kg intraperitoneal every other day, day -1 to day 21, vs. vector), the “acute GVHD severity (body weight loss and clinical GVHD scores)” value was “significantly reduce acute GVHD severity by reducing body weight loss and clinical GVHD scores”. Further, the survival in data set [1] (day 50, vector 50%) was determined as 100%; in data set [1] (day 100, vector 12%), 53%. For the same molecule, in data set [1] (syngeneic recipients BALB/c to BALB/c, same doses (25 mg/kg i.p.)), the “signs of toxicity or GVHD” value is on record as “did not present any signs of toxicity”. Further, the survival rate in data set [1] (syngeneic recipients BALB/c to BALB/c, same doses, until the end point) is 100%. The tumor-related death entry in data set [2] (allogeneic GVHD model challenged with A20 cells, by 6 weeks after BMT) is reported as “no tumor-related death was observed”. The molecule also gave a mice survival in data set [2] (allogeneic GVHD model challenged with A20 cells, by 6 weeks after BMT, vector 50%, p<0.05) of 100%. The GVHD severity entry in data set [2] (allogeneic GVHD model challenged with A20 cells, by 6 weeks after BMT, vs. vector) was “significantly reduced GVHD severity”. For the same molecule, in data set [2] (syngeneic recipients receiving A20 cells (0.5x10^6), 25 mg/kg i.p. day -1 to day 21, vs. no treatment (100% died within 3 weeks)), the survival time result is recorded as “significantly extended the survival time”. Besides, the toxicity on intestine entry in data set [3] (conclusion from the organoid data) was “does not have significant toxicity on intestine”. Also, the “organoid numbers and budding numbers” value in data set [3] (three days after coculture, series concentrations) was “No significant changes were observed”. Also, in data set [3] (three days after coculture, vs. vector group), the “Lgr5-GFP+ stem cells and Annexin V expression (apoptosis) by flow cytometry” value is “no differences between vector group and Compound No. 36 treatment group were observed”.
